How the values were obtained:
lysyl oxidases = assay: Time-dependency of inhibition (pre-incubation times); assay type: biochemical; design: Fig. 2B activity: scale not given here
From the text: PXS-4787 competes with a model substrate (putrescine) for the LOX binding site (Fig. 2d). The allylamine of PXS-4787 interacts with the co-factor of the enzyme and elicits mechanism-based inhibition (Fig. 2e). Through careful optimization, and in contrast to BAPN, PXS-4787 selectivity targets lysyl oxidases and is neither an inhibitor of, nor a substrate for, related oxidases (Fig. 2f, g and Supplementary Table S1). Furthermore, PXS-4787 was clean when profiled in a broad panel of macromolecular targets using enzyme and radioligand binding assays (LeadProfilingScreen, Eurofins CEREP Panlabs, 68 assays, test concentration 10 µM; Supplementary Data S1).
Data are expressed as mean ± SEM. Subsequent statistical analysis was performed with unpaired two-sided Student’s t tests. *p < 0.05, **p < 0.01, ***p < 0.001and ****p < 0.0001. Source data are provided as a Source Data file.
The measurement of the enzymatic activity of all lysyl oxidase family members was based on the detection of hydrogen peroxide with an Amplex-Red oxidation assay, as previously described; miniaturized in 384 well formats, with the appropriate combination of substrate and assay buffer for each individual enzyme. After a 30 min pre-incubation of the enzyme at 37 °C with the test compound (or with different incubation times for the time-dependency assay), one volume of reaction mixture containing 120 μM Amplex Red (AR) (Life Technologies), 1.5 U/mL horseradish peroxidase (HRP) (Sigma-Aldrich) and the specific substrate was added to each sample. The relative fluorescence units (RFU) were then measured every 2.5 min for 30 min at 37 °C, excitation 565 nm and emission 590, on a BMG Clariostar Microplate Reader. All the substrates were used at concentrations corresponding to their Km towards the corresponding enzyme, or with a range of different concentrations for the substrate competition experiments.

HepG2 cells = assay: Phospholipidosis in HepG2 cells; assay type: cell-based; conditions: 0–100 µM
[1] = molecular target: Leukotriene, Cysteinyl CysLT1 (Homo sapiens, UniProt Q9Y271); assay: Eurofins panel 250460; assay type: binding
Chain of Leukotriene, Cysteinyl CysLT1 (Q9Y271 whole entry): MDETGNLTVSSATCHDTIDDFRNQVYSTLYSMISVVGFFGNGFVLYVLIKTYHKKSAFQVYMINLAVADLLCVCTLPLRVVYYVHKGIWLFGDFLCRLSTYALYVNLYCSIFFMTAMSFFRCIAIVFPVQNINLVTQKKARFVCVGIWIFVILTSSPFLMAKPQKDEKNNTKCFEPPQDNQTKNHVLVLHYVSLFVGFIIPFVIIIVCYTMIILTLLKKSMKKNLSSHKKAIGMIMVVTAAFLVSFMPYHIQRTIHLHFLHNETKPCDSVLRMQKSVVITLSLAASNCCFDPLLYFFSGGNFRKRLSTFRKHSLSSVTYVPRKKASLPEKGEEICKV

**Q.** How did the “potency versus pre-incubation time” value (lysyl oxidases) turn out when `NC/C=C(\F)CS(=O)(=O)c1ccccc1` [PXS-4787] was run?
**A.** increased potency upon longer pre-incubation times

**Q.** What about the “Fig. 2B activity” value (lysyl oxidases; 1.69333e-10, pre-incubation 0 min) of the same compound?
**A.** 106.286

**Q.** What about the “Fig. 2B activity” value (lysyl oxidases; 1.69333e-10, pre-incubation 15 min) of the same compound?
**A.** 104.086

**Q.** And the “Fig. 2B activity” value (lysyl oxidases; 1.69333e-10, pre-incubation 30 min)?
**A.** 108.652

**Q.** What about the “Fig. 2B activity” value (lysyl oxidases; 1.69333e-10, pre-incubation 1 h) of the same compound?
**A.** 105.245

**Q.** What about the “Fig. 2B activity” value (lysyl oxidases; 1.69333e-10, pre-incubation 2 h) of the same compound?
**A.** 105.759

**Q.** And the “Fig. 2B activity” value (lysyl oxidases; 1.69333e-10, pre-incubation 4 h)?
**A.** 111.637

**Q.** What about the “Fig. 2B activity” value (lysyl oxidases; 5.08e-10, pre-incubation 0 min) of the same compound?
**A.** 102.267

**Q.** What about the “Fig. 2B activity” value (lysyl oxidases; 5.08e-10, pre-incubation 15 min) of the same compound?
**A.** 101.228

**Q.** What about the “Fig. 2B activity” value (lysyl oxidases; 5.08e-10, pre-incubation 30 min) of the same compound?
**A.** 106.873

**Q.** What about the “Fig. 2B activity” value (lysyl oxidases; 5.08e-10, pre-incubation 1 h) of the same compound?
**A.** 98.3282

**Q.** What about the “Fig. 2B activity” value (lysyl oxidases; 5.08e-10, pre-incubation 2 h) of the same compound?
**A.** 107.568

**Q.** And the “Fig. 2B activity” value (lysyl oxidases; 5.08e-10, pre-incubation 4 h)?
**A.** 110.707

**Q.** What about the “Fig. 2B activity” value (lysyl oxidases; 1.52e-9, pre-incubation 0 min) of the same compound?
**A.** 101.124

**Q.** And the “Fig. 2B activity” value (lysyl oxidases; 1.52e-9, pre-incubation 15 min)?
**A.** 102.218

**Q.** And the “Fig. 2B activity” value (lysyl oxidases; 1.52e-9, pre-incubation 30 min)?
**A.** 107.03

**Q.** What about the “Fig. 2B activity” value (lysyl oxidases; 1.52e-9, pre-incubation 1 h) of the same compound?
**A.** 103.614

**Q.** What about the “Fig. 2B activity” value (lysyl oxidases; 1.52e-9, pre-incubation 2 h) of the same compound?
**A.** 102.685

**Q.** What about the “Fig. 2B activity” value (lysyl oxidases; 1.52e-9, pre-incubation 4 h) of the same compound?
**A.** 110.751

**Q.** What about the “Fig. 2B activity” value (lysyl oxidases; 4.57e-9, pre-incubation 0 min) of the same compound?
**A.** 99.5583

**Q.** What about the “Fig. 2B activity” value (lysyl oxidases; 4.57e-9, pre-incubation 15 min) of the same compound?
**A.** 100.144

**Q.** What about the “Fig. 2B activity” value (lysyl oxidases; 4.57e-9, pre-incubation 30 min) of the same compound?
**A.** 103.756

**Q.** What about the “Fig. 2B activity” value (lysyl oxidases; 4.57e-9, pre-incubation 1 h) of the same compound?
**A.** 101.013

**Q.** What about the “Fig. 2B activity” value (lysyl oxidases; 4.57e-9, pre-incubation 2 h) of the same compound?
**A.** 107.904

**Q.** What about the “Fig. 2B activity” value (lysyl oxidases; 4.57e-9, pre-incubation 4 h) of the same compound?
**A.** 105.302

**Q.** And the “Fig. 2B activity” value (lysyl oxidases; 1.37e-8, pre-incubation 0 min)?
**A.** 96.8423

**Q.** What about the “Fig. 2B activity” value (lysyl oxidases; 1.37e-8, pre-incubation 15 min) of the same compound?
**A.** 98.2429

**Q.** What about the “Fig. 2B activity” value (lysyl oxidases; 1.37e-8, pre-incubation 30 min) of the same compound?
**A.** 101.141

**Q.** What about the “Fig. 2B activity” value (lysyl oxidases; 1.37e-8, pre-incubation 1 h) of the same compound?
**A.** 101.758

**Q.** What about the “Fig. 2B activity” value (lysyl oxidases; 1.37e-8, pre-incubation 2 h) of the same compound?
**A.** 104.569

**Q.** And the “Fig. 2B activity” value (lysyl oxidases; 1.37e-8, pre-incubation 4 h)?
**A.** 105.34

**Q.** And the “Fig. 2B activity” value (lysyl oxidases; 4.12e-8, pre-incubation 0 min)?
**A.** 98.5025

**Q.** What about the “Fig. 2B activity” value (lysyl oxidases; 4.12e-8, pre-incubation 15 min) of the same compound?
**A.** 98.7481

**Q.** And the “Fig. 2B activity” value (lysyl oxidases; 4.12e-8, pre-incubation 30 min)?
**A.** 99.9026

**Q.** And the “Fig. 2B activity” value (lysyl oxidases; 4.12e-8, pre-incubation 1 h)?
**A.** 99.6216

**Q.** And the “Fig. 2B activity” value (lysyl oxidases; 4.12e-8, pre-incubation 2 h)?
**A.** 100.024

**Q.** And the “Fig. 2B activity” value (lysyl oxidases; 4.12e-8, pre-incubation 4 h)?
**A.** 98.7222

**Q.** And the “Fig. 2B activity” value (lysyl oxidases; 1.23e-7, pre-incubation 0 min)?
**A.** 98.6918

**Q.** And the “Fig. 2B activity” value (lysyl oxidases; 1.23e-7, pre-incubation 15 min)?
**A.** 98.1432

**Q.** What about the “Fig. 2B activity” value (lysyl oxidases; 1.23e-7, pre-incubation 30 min) of the same compound?
**A.** 101.367

**Q.** And the “Fig. 2B activity” value (lysyl oxidases; 1.23e-7, pre-incubation 1 h)?
**A.** 90.8141

**Q.** And the “Fig. 2B activity” value (lysyl oxidases; 1.23e-7, pre-incubation 2 h)?
**A.** 90.2595

**Q.** And the “Fig. 2B activity” value (lysyl oxidases; 1.23e-7, pre-incubation 4 h)?
**A.** 86.2099

**Q.** What about the “Fig. 2B activity” value (lysyl oxidases; 3.7e-7, pre-incubation 0 min) of the same compound?
**A.** 96.5147

**Q.** What about the “Fig. 2B activity” value (lysyl oxidases; 3.7e-7, pre-incubation 15 min) of the same compound?
**A.** 94.9326

**Q.** And the “Fig. 2B activity” value (lysyl oxidases; 3.7e-7, pre-incubation 30 min)?
**A.** 97.5329

**Q.** And the “Fig. 2B activity” value (lysyl oxidases; 3.7e-7, pre-incubation 1 h)?
**A.** 85.2822

**Q.** And the “Fig. 2B activity” value (lysyl oxidases; 3.7e-7, pre-incubation 2 h)?
**A.** 74.251

**Q.** What about the “Fig. 2B activity” value (lysyl oxidases; 3.7e-7, pre-incubation 4 h) of the same compound?
**A.** 62.6684

**Q.** And the “Fig. 2B activity” value (lysyl oxidases; 1.11e-6, pre-incubation 0 min)?
**A.** 94.3157

**Q.** What about the “Fig. 2B activity” value (lysyl oxidases; 1.11e-6, pre-incubation 15 min) of the same compound?
**A.** 89.9671

**Q.** And the “Fig. 2B activity” value (lysyl oxidases; 1.11e-6, pre-incubation 30 min)?
**A.** 87.3566

**Q.** What about the “Fig. 2B activity” value (lysyl oxidases; 1.11e-6, pre-incubation 1 h) of the same compound?
**A.** 64.8977

**Q.** What about the “Fig. 2B activity” value (lysyl oxidases; 1.11e-6, pre-incubation 2 h) of the same compound?
**A.** 45.9612

**Q.** And the “Fig. 2B activity” value (lysyl oxidases; 1.11e-6, pre-incubation 4 h)?
**A.** 15.2083

**Q.** What about the “Fig. 2B activity” value (lysyl oxidases; 3.33e-6, pre-incubation 0 min) of the same compound?
**A.** 92.0439

**Q.** And the “Fig. 2B activity” value (lysyl oxidases; 3.33e-6, pre-incubation 15 min)?
**A.** 82.8346

**Q.** What about the “Fig. 2B activity” value (lysyl oxidases; 3.33e-6, pre-incubation 30 min) of the same compound?
**A.** 63.1887

**Q.** And the “Fig. 2B activity” value (lysyl oxidases; 3.33e-6, pre-incubation 1 h)?
**A.** 32.0154

**Q.** What about the “Fig. 2B activity” value (lysyl oxidases; 3.33e-6, pre-incubation 2 h) of the same compound?
**A.** 13.0848

**Q.** And the “Fig. 2B activity” value (lysyl oxidases; 3.33e-6, pre-incubation 4 h)?
**A.** 1.062

**Q.** What about the “inhibition of the least sensitive lysyl oxidase” value (lysyl oxidases; 10 µM, after 2 h) of the same compound?
**A.** complete inhibition

**Q.** And the “Fig. 2B activity” value (lysyl oxidases; 1e-5, pre-incubation 0 min)?
**A.** 71.7944

**Q.** And the “Fig. 2B activity” value (lysyl oxidases; 1e-5, pre-incubation 15 min)?
**A.** 51.1738

**Q.** And the “Fig. 2B activity” value (lysyl oxidases; 1e-5, pre-incubation 30 min)?
**A.** 24.7148

**Q.** And the “Fig. 2B activity” value (lysyl oxidases; 1e-5, pre-incubation 1 h)?
**A.** 3.779

**Q.** What about the “Fig. 2B activity” value (lysyl oxidases; 1e-5, pre-incubation 2 h) of the same compound?
**A.** 2.199

**Q.** What about the “Fig. 2B activity” value (lysyl oxidases; 1e-5, pre-incubation 4 h) of the same compound?
**A.** 0.1194

**Q.** And the “Fig. 2B activity” value (lysyl oxidases; 3e-5, pre-incubation 0 min)?
**A.** 46.8993

**Q.** What about the “Fig. 2B activity” value (lysyl oxidases; 3e-5, pre-incubation 15 min) of the same compound?
**A.** 20.2974

**Q.** And the “Fig. 2B activity” value (lysyl oxidases; 3e-5, pre-incubation 30 min)?
**A.** 5.217

**Q.** What about the “Fig. 2B activity” value (lysyl oxidases; 3e-5, pre-incubation 1 h) of the same compound?
**A.** 1.087

**Q.** What about the “Fig. 2B activity” value (lysyl oxidases; 3e-5, pre-incubation 2 h) of the same compound?
**A.** 2.027

**Q.** What about the “Fig. 2B activity” value (lysyl oxidases; 3e-5, pre-incubation 4 h) of the same compound?
**A.** -1.502

**Q.** And the phospholipidosis score (HepG2 cells)?
**A.** 0

**Q.** What about the inhibition at 10 µM [1] of the same compound?
**A.** -3%

— PMC9500072, “Topical application of an irreversible small molecule inhibitor of lysyl oxidases ameliorates skin scarring and fibrosis” (Nature Communications, 2022)
